Laboratory results from US9902709B2, “Polysubstituted pyridine compound, preparation method, use and pharmaceutical composition” (PEKING UNIVERSITY FOUNDER GROUP CO., LTD., priority 2014, dated 2018).
Blank lines part the entries; values can stand above or below the compound they belong to.

Columns and labels:
VEGFR2 = VEGFR2 (Homo sapiens (Human), UniProt P35968); assay: Inhibitory activity of VEGFR2 kinase (HTRF KinEASE-TK kit); assay type: biochemical; details: for IC50: ATP 5 μM, 20 minutes, room temperature; for IC50 value as fold of that of Comparative compound 2 / IC50 value as fold of that of Sorafenib (free base): ratio of IC50
Experimental: HTRF®KinEASE™-TK kit (Cat.62TKOPEC, Cisbio);
VEGFR2 (Cat: k2643, Sigma);
2.1 Preparation of VEGFR2 Kinase Reagent
1× kinase buffer: 1 mL 1× kinase buffer contained 200 μL 5× kinase buffer (Invitrogen), 5 μL, 1M MgCl2, 1 μL 1M DTT, 1 μL 1M MnCl2, and 793 μL ddH2O;
5×TK substrate-biotin and ATP working fluid: as the concentrations of TK substrate-biotin and ATP, please refer to Table 1. TK substrate-biotin and ATP were diluted with 1× kinase buffer to 5 folds of the reaction concentrations;
5× kinase working fluid: as the concentration of VEGFR2 kinase, please refer to Table 1. 5× kinase working fluid was prepared with 1× Kinase buffer;
4× Sa-XL665 working fluid: as the concentration of Sa-XL665 (Cisbio) in the reaction, please refer to Table 1. The 4× Sa-XL665 working fluid was prepared with assay buffer (Cisbio);
4×TK Ab-cryptate working fluid: TK Ab-Cryptate (Cisbio) was 100-fold diluted with assay buffer (Cisbio), as working fluid;
Experimental Procedure of HTRF KinEASE TK Kit
After all the reagents were prepared as described above, the reagents except for enzymes were equilibrated to room temperature, then adding samples were performed.
TK substrate-biotin, ATP, VEGFR2 kinase and a compound at a certain concentration were reacted in 1× kinase buffer at room temperature for 20 minutes. […] To all the reaction wells, 5 μl 4× Sa-XL665 working fluid and 5 μl 4×TK Ab-cryptate working fluid were added. After reacting at room temperature for 1 hours, fluorescence signal (excited at 320 nm, emitted at 665 nm, 615 nm) was detected by ENVISION detector (Perkinelmer). Based on the full-active well and the background signal well, the inhibition rate for each well was calculated, and the average value was used for duplicate wells. The half maximal inhibitory concentration (IC50) for each test compound was fitted by professional software Graphpad PRISM 5.0.
2.3 Data Analysis Emission light ratio (ER)=665 nm emission signal/615 nm emission signal Inhibition rate=(ERpositive−ERsample)/(ERpositive−ERnegative)*100%
HTRF KinEASE TK kit was used to determine the IC50 value of a compound for kinase VEGFR2. The final concentration of the compound started from 100 μM, and 4-fold gradient dilution was carried out to provide 10 concentrations. Duplicate wells were used for each concentration. The final concentration of DMSO was controlled to 1% in the reaction system.

[1] = tested on: human renal cancer 786-O transplantation; assay: Effect on tumor weight of human renal cancer 786-O transplantation nude mice (Comparative Experimental Example 1); assay type: in vivo; details: QD × 14 days
From the text: Comparative Experimental Example 1
The well grown 786-O solid tumor was cut into a mass of an average volume of about 1 mm^3 under aseptic conditions, and was used to inoculate nude mouse at axillary cavity of right forelimb subcutaneously via a trocar. The tumor growth state was observed regularly until the tumor grew into a volume of 250˜550 mm^3.
(§1) Animals with tumors of a too large or too small volume and an irregular shape were discarded. Tumor-bearing mice with a tumor volume of 250˜550 mm^3 in a good state were selected, 48 mice in total, and were divided into 6 groups, which were 1 solvent control group, 3 positive control groups, and 2 test sample groups. Both the positive control group and the test sample group were administered intragastrically once a day; the solvent control group was administered with 12.5% ethanol & 12.5% water solution of polyoxyethylene castor oil once a day; intragastrical volume was 10 mL/kg.
(§2) In the period of administration, tumor diameter was measured twice every week, tumor volume was calculated, and animal body weight was recorded. Animal state was observed when administered, and abnormal state was recorded.
Animal was sacrificed with CO2, and tumor was peeled off, weighed, and photographed. Animal was subjected to gross anatomy, and organs were observed by eyes to find if they were normal or not.
(§3) Observation Indexes: Tumor weight inhibiting rate (IR)=(WC−WT)/WC
Wherein WC and WT represented the average tumor weight of solvent control group and the average tumor weight of drug administration group, respectively.
Experimental data was subjected to calculation and relevant statistic processing by Microsoft Office Excel 2003 software. Unless otherwise specified, data was represented as Mean±Standard Error (Mean±S.E), and t-test is used in the comparison between two groups.

[2] = tested on: human colon cancer HCT-116 transplantation; assay: Effect on tumor weight of human colon cancer HCT-116 transplantation nude mice (Comparative Experiment Example 2); assay type: in vivo; details: QD × 17 day
From the text: Comparative Experiment Example 2
Under aseptic conditions, the well grown human HCT-116 cell suspension in logarithmic growth phase was used to inoculate nude mouse at axillary cavity of right forelimb subcutaneously via an injector. The tumor growth state was observed regularly until the tumor grew to a volume of 100˜300 mm^3.
as §1, with “48” for “Animals with tumors of a too large or too small volume and an irregular shape were discarded.”, “100˜300” for “250˜550”, “mm^3” for “mm^3 in a good state”, “selected” for “selected, 48 mice in total,”, “and” for “and were”
as §2
Animal was sacrificed with CO2, and tumor mass was peeled off, weighed, and photographed. After photographed, each tumor mass was cut into two parts, wherein one was stored in 4% paraformaldehyde, and the other was packaged into a freezing tube, and frozen in liquid nitrogen. Animal was subjected to gross anatomy, and organs were observed by eyes to find if they were normal or not.
as §3
wherein WC and WT represented the average tumor weight of solvent control group and the average tumor weight of drug administration group, respectively.
Experimental data was subjected to calculation and relevant statistic processing by Microsoft Office Excel 2003 software. Unless otherwise specified, data was represented as Mean±Standard Error (Mean±S.E.), and t-test is used in the comparison between two groups.

VEGFR2, sequence (P35968 20-1356): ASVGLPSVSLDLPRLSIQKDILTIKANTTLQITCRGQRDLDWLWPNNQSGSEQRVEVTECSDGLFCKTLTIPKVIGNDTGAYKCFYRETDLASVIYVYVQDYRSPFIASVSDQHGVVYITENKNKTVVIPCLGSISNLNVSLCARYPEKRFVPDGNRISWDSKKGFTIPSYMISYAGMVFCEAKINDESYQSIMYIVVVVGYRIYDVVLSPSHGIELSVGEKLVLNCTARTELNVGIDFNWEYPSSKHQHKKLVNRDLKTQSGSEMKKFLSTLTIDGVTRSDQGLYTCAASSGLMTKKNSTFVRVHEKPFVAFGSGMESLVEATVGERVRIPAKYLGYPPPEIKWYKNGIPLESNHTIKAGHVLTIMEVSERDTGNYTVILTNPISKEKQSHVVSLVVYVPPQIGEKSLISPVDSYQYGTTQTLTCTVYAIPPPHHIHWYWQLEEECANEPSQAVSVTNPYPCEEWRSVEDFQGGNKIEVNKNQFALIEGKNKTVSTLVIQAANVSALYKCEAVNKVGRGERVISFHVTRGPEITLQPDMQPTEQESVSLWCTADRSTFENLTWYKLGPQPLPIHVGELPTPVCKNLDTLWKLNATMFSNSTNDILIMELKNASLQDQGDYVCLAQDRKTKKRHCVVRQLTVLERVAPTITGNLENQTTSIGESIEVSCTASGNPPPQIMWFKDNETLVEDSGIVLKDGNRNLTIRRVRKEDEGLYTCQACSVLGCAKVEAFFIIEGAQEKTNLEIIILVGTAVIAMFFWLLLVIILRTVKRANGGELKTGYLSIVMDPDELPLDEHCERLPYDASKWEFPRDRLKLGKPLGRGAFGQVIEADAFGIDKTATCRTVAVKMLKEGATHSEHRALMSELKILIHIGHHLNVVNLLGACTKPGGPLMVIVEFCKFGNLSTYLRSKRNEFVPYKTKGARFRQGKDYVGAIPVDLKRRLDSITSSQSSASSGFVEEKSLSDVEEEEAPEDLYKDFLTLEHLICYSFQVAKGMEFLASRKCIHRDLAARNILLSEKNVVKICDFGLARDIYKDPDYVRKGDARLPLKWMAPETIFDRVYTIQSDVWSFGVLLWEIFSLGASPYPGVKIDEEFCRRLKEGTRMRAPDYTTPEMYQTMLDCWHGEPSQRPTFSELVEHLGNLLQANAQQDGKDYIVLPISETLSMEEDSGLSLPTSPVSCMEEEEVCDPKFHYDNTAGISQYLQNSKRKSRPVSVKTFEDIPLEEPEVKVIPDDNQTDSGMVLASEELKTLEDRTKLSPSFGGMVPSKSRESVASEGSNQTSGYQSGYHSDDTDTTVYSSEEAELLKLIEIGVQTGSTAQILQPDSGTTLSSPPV

SMILES: Cn1cc(-c2cc(Oc3ccc(NC(=O)Nc4ccc(Cl)c(C(F)(F)F)c4)cc3)ccn2)cn1 [Comparative example 2, 1-(4-chloro-3-(trifluoromethyl)phenyl)-3-(4-(2-(1-methyl-pyrazol-4-yl)-pyridin-4-yl-oxy)phenyl)urea]
IC50 (VEGFR2): 188 nM | Tumor weight Mean ± S.E ([1]; 20 mg/kg po, sorafenib as p-toluenesulfonate, FD-1210005 free form): 0.1892 ± 0.0253 g | Tumor-inhibiting rate ([1]; 20 mg/kg po, sorafenib as p-toluenesulfonate, FD-1210005 free form, listed as Comparative compound 2): 80% | Tumor-inhibiting rate ([1]; 20 mg/kg po, sorafenib as p-toluenesulfonate, FD-1210005 free form, listed as FD-1210005): 79.78% | Tumor weight Mean ± S.E ([1]; 60 mg/kg po, sorafenib as p-toluenesulfonate, FD-1210005 free form): 0.1897 ± 0.0192 g | Tumor-inhibiting rate ([1]; 60 mg/kg po, sorafenib as p-toluenesulfonate, FD-1210005 free form, listed as Comparative compound 2): 80% | Tumor-inhibiting rate ([1]; 60 mg/kg po, sorafenib as p-toluenesulfonate, FD-1210005 free form, listed as FD-1210005): 79.73% | Tumor weight Mean ± S.E ([2]; 20 mg/kg Ig, sorafenib as p-toluenesulfonate, FD-1210005 free form): 0.3283 ± 0.0404 g | Tumor-inhibiting rate ([2]; 20 mg/kg Ig, sorafenib as p-toluenesulfonate, FD-1210005 free form, listed as Comparative compound 2): 67% | Tumor-inhibiting rate ([2]; 20 mg/kg Ig, sorafenib as p-toluenesulfonate, FD-1210005 free form, listed as FD-1210005): 66.91% | Tumor weight Mean ± S.E ([2]; 60 mg/kg Ig, sorafenib as p-toluenesulfonate, FD-1210005 free form): 0.2829 ± 0.0309 g | Tumor-inhibiting rate ([2]; 60 mg/kg Ig, sorafenib as p-toluenesulfonate, FD-1210005 free form, listed as Comparative compound 2): 71% | Tumor-inhibiting rate ([2]; 60 mg/kg Ig, sorafenib as p-toluenesulfonate, FD-1210005 free form, listed as FD-1210005): 71.49%

SMILES: Cn1cc(-c2cc(Oc3ccc(NC(=O)Nc4ccc(Cl)c(C(F)(F)F)c4)cc3)c(F)cn2)cn1 [Comparative example 3, 1-(4-chloro-3-(trifluoromethyl)phenyl)-3-(4-(2-(1-methyl-pyrazol-4-yl)-5-fluoro-pyridin-4-yl-oxy)phenyl)urea, reference compound]
IC50 (VEGFR2): 437 nM

SMILES: COc1cc(Oc2ccc(NC(=O)Nc3ccc(Cl)c(C(F)(F)F)c3)cc2)cc(-c2cnn(C)c2)n1 [Comparative example 5, 1-(4-chloro-3-(trifluoromethyl)phenyl)-3-(4-(2-(1-methyl-pyrazol-4-yl)-6-methoxy-pyridin-4-yl-oxy)phenyl)urea, reference compound]
IC50 (VEGFR2): 2390 nM

SMILES: Cn1cc(-c2nccc(Oc3ccc(NC(=O)Nc4ccc(Cl)c(C(F)(F)F)c4)c(F)c3)c2Cl)cn1 [Example 3, 1-(4-chloro-3-(trifluoromethyl)phenyl)-3-(4-(3-chloro-2-(1-methyl-pyrazol-4-yl)-pyridin-4-yl-oxy)-2-fluorophenyl)urea]
IC50 (VEGFR2): 222 nM | inhibitory activity as fold of that of Sorafenib (VEGFR2; VEGFR2 kinase): 1.5 fold | IC50 value as fold of that of Comparative compound 2 (VEGFR2; VEGFR2 kinase): comparable | IC50 value as fold of that of Sorafenib (free base) (VEGFR2; VEGFR2 kinase): 2.5 fold

SMILES: Cn1cc(-c2nccc(Oc3ccc(NC(=O)Nc4ccc(Cl)c(C(F)(F)F)c4)cc3)c2C#N)cn1 [Example 4, 1-(4-chloro-3-(trifluoromethyl)phenyl)-3-(4-(3-cyano-2-(1-methyl-pyrazol-4-yl)-pyridin-4-yl-oxy)phenyl)urea]
IC50 (VEGFR2): 68.5 nM | inhibitory activity as fold of that of Comparative compound 2 (VEGFR2; VEGFR2 kinase): 2.7 fold | inhibitory activity as fold of that of Sorafenib (VEGFR2; VEGFR2 kinase): 1.3 fold | IC50 value as fold of that of Comparative compound 2 (VEGFR2; VEGFR2 kinase): 0.36 fold | IC50 value as fold of that of Sorafenib (free base) (VEGFR2; VEGFR2 kinase): 0.75 fold

SMILES: Cn1cc(-c2nccc(Oc3ccc(NC(=O)Nc4ccc(Cl)c(C(F)(F)F)c4)cc3)c2N)cn1 [Example 6, 1-(4-chloro-3-(trifluoromethyl)phenyl)-3-(4-(3-amino-2-(1-methyl-pyrazol-4-yl)-pyridin-4-yl-oxy)phenyl)urea]
IC50 (VEGFR2): 215 nM

SMILES: CCN(CC)CCNC(=O)c1c(C)[nH]c(/C=C2\C(=O)Nc3ccc(F)cc32)c1C [Sunitinib]
Tumor weight Mean ± S.E ([1]; 40 mg/kg po): 0.1825 ± 0.0213 g | Tumor-inhibiting rate ([1]; 40 mg/kg po): 80.49% | Tumor weight Mean ± S.E ([2]; 40 mg/kg Ig): 0.3890 ± 0.0453 g | Tumor-inhibiting rate ([2]; 40 mg/kg Ig): 60.80%

Results, then the compound that gave them:

IC50 (VEGFR2): 20500 nM
SMILES: Cn1cc(-c2cc(Oc3ccc(NC(=O)Nc4ccc(Cl)c(C(F)(F)F)c4)cc3)c(Cl)cn2)cn1 [Comparative example 4, 1-(4-chloro-3-(trifluoromethyl)phenyl)-3-(4-(2-(1-methyl-pyrazol-4-yl)-5-chloro-pyridin-4-yl-oxy)phenyl)urea, reference compound]

IC50 (VEGFR2): 317 nM
SMILES: Cc1c(Oc2ccc(NC(=O)Nc3ccc(Cl)c(C(F)(F)F)c3)cc2)ccnc1-c1cnn(C)c1 [Example 5, 1-(4-chloro-3-(trifluoromethyl)phenyl)-3-(4-(3-methyl-2-(1-methyl-pyrazol-4-yl)-pyridin-4-yl-oxy)phenyl)urea]

IC50 (VEGFR2): 656 nM
SMILES: CNc1c(Oc2ccc(NC(=O)Nc3ccc(Cl)c(C(F)(F)F)c3)cc2)ccnc1-c1cnn(C)c1 [Example 7, 1-(4-chloro-3-(trifluoromethyl)phenyl)-3-(4-(3-methylamino-2-(1-methyl-pyrazol-4-yl)-pyridin-4-yl-oxy)phenyl)urea]

IC50 (VEGFR2): 417 nM
SMILES: COc1c(Oc2ccc(NC(=O)Nc3ccc(Cl)c(C(F)(F)F)c3)cc2)ccnc1-c1cnn(C)c1 [Example 8, 1-(4-chloro-3-(trifluoromethyl)phenyl)-3-(4-(3-methoxy-2-(1-methyl-pyrazol-4-yl)-pyridin-4-yl-oxy)phenyl)urea]
